Reference: article PMC11076555, “Dishevelled2 activates WGEF via its interaction with a unique internal peptide motif of the GEF” (Communications Biology, 2024)

Columns and labels:
[1] = target: T1, Dvl2^PDZ (PDZ domain of human Dishevelled2) (Homo sapiens, UniProt O14641); experiment: Microscale thermophoresis (MST) binding to Dvl2^PDZ; details: compared with wild-type WGEF^pep, triplicates
T1 construct: introducing a stop codon after C354 residue of Dvl2^PDZ to eliminate the fused peptide, cloned at the C-termini of PDZ; 6xHis (N, cleaved yes); host or cells: E. coli Rosetta (DE3)
T1 sequence (O14641 267-339 limits assumed): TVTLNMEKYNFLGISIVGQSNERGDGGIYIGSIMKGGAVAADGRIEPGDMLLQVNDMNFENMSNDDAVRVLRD
Experimental: MST experiments were performed using Monolith NT.115 instrument from Nanotemper technologies. Dvl2^PDZ domain was fluorescently labelled as per the instructions, using Monolith Redmaleimide 2nd generation-cysteine reactive label. The experimental condition consists of 10 mM Tris–HCl pH8, 150 mM NaCl, 2 mM DTT, 5% Glycerol and 0.05% Tween20. For Dvl2^PDZ-peptide affinity determination, synthetic WGEF peptides were serially diluted (1:2) 16 times, starting from an approximate concentration of 3.4 mM. 50 nM of fluorescently labelled Dvl2^PDZ domain was added to the serially diluted peptides, followed by incubation at 25 °C for 30 minutes. Thermophoresis signals were recorded at 20% of excitation power and 40% MST at 25 °C. Data was fitted using the Kd fit model in the MO. Affinity Analysis v2.3 software. Like peptides, hWGEF (330–581) protein was serially diluted to obtain a protein concentration range of 138–0.0042 µM. Experimental conditions were the same as mentioned above for peptides. All MST experiments were done in triplicates.
Guanine nucleotide exchange assays were performed in triplicates. Fluorescence decrease was fitted using a single exponential decay mode in GraphPad Prism. All results are reported with standard deviation (±SD). Statistical significance was calculated using ordinary One-way ANOVA with multiple comparisons. * Represents adjust P value with statistical significance of ****P < 0.0001, ***P < 0.001, **P < 0.01 and […]. MST assays were performed in triplicates. Data was fitted using the Kd fit model in the MO. Affinity Analysis v2.3 software. All results are reported with standard deviation (±SD). MD simulation runs for apo and peptide docked Dvl2^PDZ were performed in triplicates. Plots reported from MD simulation studies are represented with standard deviation (±SD).

[2] = test system: Dvl2^PDZ–WGEF interaction; experiment: In vitro guanine nucleotide exchange (GEF) assay, peptide competition with Dvl2^PDZ-activated xWGEF330; format: biochemical, Xenopus laevis (xWGEF), human (hDvl2^PDZ; details: 200 µM peptide, 50 µM Dvl2^PDZ, 5 µM xWGEF330, 2 µM Mant-GDP loaded RhoA, 30 min at 25 °C, fluorescence 360/440 nm, triplicates
Experimental: Guanine nucleotide exchange assays were carried out using RhoA loaded with fluorescently labelled Mant-GDP[63],[64]. Briefly, 150 μM of RhoA was incubated with 5 Molar excess of fluorescent label, i.e., Mant-GDP in a buffer containing 10 mM Tris pH 8, 150 mM NaCl, 2 mM DTT, 5 mM EDTA, 0.5 mM MgCl2 and 5% Glycerol. The reaction was incubated on ice for 30 min, followed by the addition of 10 mM MgCl2 to stop the reaction. Excess Mant-GDP was removed through buffer exchange and Mant-GDP loaded RhoA was concentrated and stored at −80 °C. For assays, 2 μM of Mant-GDP loaded RhoA was incubated with 5 μM of xWGEF in the presence or absence of hDvl2^PDZ (0 μM, 25 μM and 50 μM) for 30 min at 25 °C. […] Once the fluorescence was stable, excess GTP (10x of labelled GTPase) was added to start the exchange reaction. […] A decrease in fluorescence was recorded using a BioTek Cytation5 plate reader with excitation and emission of 360 and 440 nm, respectively. Fluorescence was normalized and decrease was fitted using a single exponential decay mode in GraphPad Prism. […]
Guanine nucleotide exchange assays were performed in triplicates. Fluorescence decrease was fitted using a single exponential decay mode in GraphPad Prism. […]

Sequence	Effect of alanine substitution on WGEF^pep–Dvl2^PDZ interaction (in words) [1]	Effect of peptide on GEF (nucleotide exchange) activity of Dvl2^PDZ-activated xWGEF330 [2]
GSTFSLWQAIP [WGEF^pepD9A, alanine variant of WGEF^pep, …]	completely abolishes	decrease in the exchange activity of WGEF, but not to an extent brought out by the wild-type WGEF^pep
GSTFSLAQDIP [WGEF^pepW7A, alanine variant of WGEF^pep, …]	completely abolishes	–
GSTFSLWQDIA [WGEF^pepP11A, alanine variant of WGEF^pep, …]	completely abolishes	–
